Measurements from ChEMBL document CHEMBL5465560, “Selectivity Literature for EUbOPEN Chemogenomic Library” (2024).

Experiments:
[1] = molecular target: T1, Serine/threonine-protein kinase Chk1 (Homo sapiens) (UniProt O14757); experiment: Selectivity interaction (Kinase panel (literature)) EUB0001199aCl CHEK1; conditions: at 1 µM
T1 sequence (whole entry): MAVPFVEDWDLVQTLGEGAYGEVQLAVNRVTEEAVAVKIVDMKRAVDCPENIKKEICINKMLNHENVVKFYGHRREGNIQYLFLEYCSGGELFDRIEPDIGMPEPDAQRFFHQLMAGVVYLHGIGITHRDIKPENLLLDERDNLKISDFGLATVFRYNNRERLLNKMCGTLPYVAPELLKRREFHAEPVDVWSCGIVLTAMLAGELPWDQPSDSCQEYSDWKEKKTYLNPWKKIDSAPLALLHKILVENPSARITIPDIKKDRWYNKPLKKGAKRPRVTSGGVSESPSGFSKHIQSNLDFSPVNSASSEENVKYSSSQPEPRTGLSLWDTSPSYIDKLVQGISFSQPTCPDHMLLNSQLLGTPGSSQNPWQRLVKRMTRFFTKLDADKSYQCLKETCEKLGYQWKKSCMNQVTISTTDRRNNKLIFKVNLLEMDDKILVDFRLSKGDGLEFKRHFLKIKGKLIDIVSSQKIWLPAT

[2] = molecular target: Tyrosine-protein kinase ABL1 (Homo sapiens, UniProt P00519); experiment: Selectivity interaction (ActivX KiNativ screen (kinase selectivity in THP-1 cell lysates)) EUB0000639a ABL1; assay type: subcellular; conditions: lysate, at 0.01 µM
Chain of Tyrosine-protein kinase ABL1 (P00519 whole entry): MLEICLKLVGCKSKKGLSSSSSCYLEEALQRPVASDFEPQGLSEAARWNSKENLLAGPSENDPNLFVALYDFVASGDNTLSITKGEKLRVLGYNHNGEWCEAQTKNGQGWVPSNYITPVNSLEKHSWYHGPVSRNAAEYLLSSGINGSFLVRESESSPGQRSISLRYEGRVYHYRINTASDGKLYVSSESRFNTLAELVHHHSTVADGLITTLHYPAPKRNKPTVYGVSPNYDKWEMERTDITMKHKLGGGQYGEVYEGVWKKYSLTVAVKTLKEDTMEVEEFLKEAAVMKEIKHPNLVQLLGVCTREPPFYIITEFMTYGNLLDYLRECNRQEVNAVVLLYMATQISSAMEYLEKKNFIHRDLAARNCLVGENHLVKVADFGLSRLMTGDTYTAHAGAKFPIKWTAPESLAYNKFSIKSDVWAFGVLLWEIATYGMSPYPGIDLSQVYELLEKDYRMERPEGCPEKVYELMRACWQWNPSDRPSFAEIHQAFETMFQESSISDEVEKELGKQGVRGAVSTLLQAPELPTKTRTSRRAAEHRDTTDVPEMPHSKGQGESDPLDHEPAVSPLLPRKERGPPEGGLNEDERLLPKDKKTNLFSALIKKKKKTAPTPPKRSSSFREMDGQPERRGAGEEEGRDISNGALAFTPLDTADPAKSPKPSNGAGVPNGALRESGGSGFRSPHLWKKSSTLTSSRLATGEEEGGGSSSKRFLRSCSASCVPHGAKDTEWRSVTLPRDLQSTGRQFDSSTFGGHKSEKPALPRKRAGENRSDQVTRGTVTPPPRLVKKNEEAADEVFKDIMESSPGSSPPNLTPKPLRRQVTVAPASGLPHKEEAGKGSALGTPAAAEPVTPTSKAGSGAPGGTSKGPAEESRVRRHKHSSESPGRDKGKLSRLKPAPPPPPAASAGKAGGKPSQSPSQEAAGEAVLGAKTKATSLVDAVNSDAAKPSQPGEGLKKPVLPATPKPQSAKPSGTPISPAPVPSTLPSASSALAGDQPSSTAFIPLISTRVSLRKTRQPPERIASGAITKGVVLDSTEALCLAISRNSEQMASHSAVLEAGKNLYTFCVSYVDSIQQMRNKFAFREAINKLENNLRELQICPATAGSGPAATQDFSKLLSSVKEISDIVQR

[3] = molecular target: Tyrosine-protein kinase Fyn (Homo sapiens) (UniProt P06241); experiment: Selectivity interaction (KinomeScan (DiscoverX)) EUB0000618a FYN; conditions: at 10 µM
Chain of Tyrosine-protein kinase Fyn (Homo sapiens) (P06241 2-537 limits assumed): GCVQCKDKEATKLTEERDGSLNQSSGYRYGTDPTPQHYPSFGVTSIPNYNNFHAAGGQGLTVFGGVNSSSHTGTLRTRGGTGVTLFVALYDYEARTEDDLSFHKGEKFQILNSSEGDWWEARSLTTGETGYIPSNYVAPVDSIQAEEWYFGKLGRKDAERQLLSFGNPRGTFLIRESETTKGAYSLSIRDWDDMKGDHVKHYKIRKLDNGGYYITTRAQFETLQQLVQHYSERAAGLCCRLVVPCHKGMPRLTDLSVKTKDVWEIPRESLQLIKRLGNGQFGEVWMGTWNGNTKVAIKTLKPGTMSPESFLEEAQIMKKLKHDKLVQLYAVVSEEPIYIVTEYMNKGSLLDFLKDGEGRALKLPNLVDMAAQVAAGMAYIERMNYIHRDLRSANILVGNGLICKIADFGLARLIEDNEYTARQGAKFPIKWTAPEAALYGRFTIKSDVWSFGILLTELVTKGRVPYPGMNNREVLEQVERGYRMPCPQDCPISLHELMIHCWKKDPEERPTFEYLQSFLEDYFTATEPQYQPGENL

[4] = molecular target: T2, Phosphatidylinositol 3-kinase C2 domain-containing subunit gamma (Homo sapiens) (UniProt O75747); experiment: Selectivity interaction (KinomeScan (DiscoverX)) EUB0001619a PIK3C2G; conditions: at 1 µM
T2 sequence (whole entry): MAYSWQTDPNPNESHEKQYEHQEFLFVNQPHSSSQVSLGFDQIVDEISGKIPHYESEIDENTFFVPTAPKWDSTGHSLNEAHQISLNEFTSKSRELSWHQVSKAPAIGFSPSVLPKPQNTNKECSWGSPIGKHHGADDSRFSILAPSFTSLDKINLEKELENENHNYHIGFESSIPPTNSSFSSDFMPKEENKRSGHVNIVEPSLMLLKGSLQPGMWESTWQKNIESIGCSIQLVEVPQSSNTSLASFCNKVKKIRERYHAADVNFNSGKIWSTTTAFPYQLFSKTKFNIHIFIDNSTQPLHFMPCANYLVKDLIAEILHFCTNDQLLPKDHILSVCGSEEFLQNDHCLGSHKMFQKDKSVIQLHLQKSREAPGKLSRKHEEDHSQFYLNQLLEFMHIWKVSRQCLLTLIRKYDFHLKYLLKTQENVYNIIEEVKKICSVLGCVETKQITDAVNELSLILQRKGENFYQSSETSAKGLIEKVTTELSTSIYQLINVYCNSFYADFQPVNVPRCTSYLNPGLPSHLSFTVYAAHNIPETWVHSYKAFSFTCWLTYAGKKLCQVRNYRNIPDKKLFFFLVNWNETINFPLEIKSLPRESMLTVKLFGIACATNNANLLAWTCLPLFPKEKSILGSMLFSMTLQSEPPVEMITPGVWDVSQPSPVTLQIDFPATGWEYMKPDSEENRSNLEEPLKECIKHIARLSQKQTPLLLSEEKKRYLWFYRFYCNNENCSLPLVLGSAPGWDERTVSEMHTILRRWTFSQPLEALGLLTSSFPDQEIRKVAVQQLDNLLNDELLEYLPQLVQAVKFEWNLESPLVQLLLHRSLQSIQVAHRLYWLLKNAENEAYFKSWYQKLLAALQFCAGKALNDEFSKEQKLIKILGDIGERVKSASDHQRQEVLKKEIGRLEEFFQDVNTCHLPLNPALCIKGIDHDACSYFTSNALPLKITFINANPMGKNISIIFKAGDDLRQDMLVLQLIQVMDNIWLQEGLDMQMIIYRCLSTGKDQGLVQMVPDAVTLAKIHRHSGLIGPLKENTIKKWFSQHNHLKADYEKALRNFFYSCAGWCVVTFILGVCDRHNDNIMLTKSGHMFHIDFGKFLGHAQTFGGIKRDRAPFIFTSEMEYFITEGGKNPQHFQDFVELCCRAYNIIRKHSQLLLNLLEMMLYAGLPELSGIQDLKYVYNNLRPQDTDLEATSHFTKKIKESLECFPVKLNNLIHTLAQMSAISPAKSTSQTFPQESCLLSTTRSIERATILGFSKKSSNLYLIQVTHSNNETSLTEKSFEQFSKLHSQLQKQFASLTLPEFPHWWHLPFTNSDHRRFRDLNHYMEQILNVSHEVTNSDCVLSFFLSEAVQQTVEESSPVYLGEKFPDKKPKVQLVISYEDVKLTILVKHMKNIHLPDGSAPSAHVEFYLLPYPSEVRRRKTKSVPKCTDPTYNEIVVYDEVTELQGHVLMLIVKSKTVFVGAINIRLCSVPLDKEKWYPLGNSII

[5] = molecular target: T3, Dual specificity mitogen-activated protein kinase kinase 6 (Homo sapiens) (UniProt P52564); experiment: Selectivity interaction (KinomeScan (DiscoverX)) EUB0001619a MAP2K6; conditions: at 1 µM
T3 sequence (whole entry): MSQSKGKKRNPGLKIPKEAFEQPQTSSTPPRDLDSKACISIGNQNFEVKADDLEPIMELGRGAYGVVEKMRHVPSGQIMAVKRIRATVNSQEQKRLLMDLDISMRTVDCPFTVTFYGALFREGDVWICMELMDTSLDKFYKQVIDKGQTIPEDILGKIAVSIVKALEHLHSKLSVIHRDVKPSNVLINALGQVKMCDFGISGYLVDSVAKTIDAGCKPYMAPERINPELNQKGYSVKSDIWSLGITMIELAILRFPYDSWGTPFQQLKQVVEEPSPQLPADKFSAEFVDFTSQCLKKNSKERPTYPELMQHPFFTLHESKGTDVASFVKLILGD

[6] = system: Leucine-rich repeat serine/threonine-protein kinase 2 (Homo sapiens), Q5S007 [G2019S]; conditions: at 1 µM
Chain of Leucine-rich repeat serine/threonine-protein kinase 2 (Homo sapiens), Q5S007 [G2019S] (Q5S007 whole entry G2019S): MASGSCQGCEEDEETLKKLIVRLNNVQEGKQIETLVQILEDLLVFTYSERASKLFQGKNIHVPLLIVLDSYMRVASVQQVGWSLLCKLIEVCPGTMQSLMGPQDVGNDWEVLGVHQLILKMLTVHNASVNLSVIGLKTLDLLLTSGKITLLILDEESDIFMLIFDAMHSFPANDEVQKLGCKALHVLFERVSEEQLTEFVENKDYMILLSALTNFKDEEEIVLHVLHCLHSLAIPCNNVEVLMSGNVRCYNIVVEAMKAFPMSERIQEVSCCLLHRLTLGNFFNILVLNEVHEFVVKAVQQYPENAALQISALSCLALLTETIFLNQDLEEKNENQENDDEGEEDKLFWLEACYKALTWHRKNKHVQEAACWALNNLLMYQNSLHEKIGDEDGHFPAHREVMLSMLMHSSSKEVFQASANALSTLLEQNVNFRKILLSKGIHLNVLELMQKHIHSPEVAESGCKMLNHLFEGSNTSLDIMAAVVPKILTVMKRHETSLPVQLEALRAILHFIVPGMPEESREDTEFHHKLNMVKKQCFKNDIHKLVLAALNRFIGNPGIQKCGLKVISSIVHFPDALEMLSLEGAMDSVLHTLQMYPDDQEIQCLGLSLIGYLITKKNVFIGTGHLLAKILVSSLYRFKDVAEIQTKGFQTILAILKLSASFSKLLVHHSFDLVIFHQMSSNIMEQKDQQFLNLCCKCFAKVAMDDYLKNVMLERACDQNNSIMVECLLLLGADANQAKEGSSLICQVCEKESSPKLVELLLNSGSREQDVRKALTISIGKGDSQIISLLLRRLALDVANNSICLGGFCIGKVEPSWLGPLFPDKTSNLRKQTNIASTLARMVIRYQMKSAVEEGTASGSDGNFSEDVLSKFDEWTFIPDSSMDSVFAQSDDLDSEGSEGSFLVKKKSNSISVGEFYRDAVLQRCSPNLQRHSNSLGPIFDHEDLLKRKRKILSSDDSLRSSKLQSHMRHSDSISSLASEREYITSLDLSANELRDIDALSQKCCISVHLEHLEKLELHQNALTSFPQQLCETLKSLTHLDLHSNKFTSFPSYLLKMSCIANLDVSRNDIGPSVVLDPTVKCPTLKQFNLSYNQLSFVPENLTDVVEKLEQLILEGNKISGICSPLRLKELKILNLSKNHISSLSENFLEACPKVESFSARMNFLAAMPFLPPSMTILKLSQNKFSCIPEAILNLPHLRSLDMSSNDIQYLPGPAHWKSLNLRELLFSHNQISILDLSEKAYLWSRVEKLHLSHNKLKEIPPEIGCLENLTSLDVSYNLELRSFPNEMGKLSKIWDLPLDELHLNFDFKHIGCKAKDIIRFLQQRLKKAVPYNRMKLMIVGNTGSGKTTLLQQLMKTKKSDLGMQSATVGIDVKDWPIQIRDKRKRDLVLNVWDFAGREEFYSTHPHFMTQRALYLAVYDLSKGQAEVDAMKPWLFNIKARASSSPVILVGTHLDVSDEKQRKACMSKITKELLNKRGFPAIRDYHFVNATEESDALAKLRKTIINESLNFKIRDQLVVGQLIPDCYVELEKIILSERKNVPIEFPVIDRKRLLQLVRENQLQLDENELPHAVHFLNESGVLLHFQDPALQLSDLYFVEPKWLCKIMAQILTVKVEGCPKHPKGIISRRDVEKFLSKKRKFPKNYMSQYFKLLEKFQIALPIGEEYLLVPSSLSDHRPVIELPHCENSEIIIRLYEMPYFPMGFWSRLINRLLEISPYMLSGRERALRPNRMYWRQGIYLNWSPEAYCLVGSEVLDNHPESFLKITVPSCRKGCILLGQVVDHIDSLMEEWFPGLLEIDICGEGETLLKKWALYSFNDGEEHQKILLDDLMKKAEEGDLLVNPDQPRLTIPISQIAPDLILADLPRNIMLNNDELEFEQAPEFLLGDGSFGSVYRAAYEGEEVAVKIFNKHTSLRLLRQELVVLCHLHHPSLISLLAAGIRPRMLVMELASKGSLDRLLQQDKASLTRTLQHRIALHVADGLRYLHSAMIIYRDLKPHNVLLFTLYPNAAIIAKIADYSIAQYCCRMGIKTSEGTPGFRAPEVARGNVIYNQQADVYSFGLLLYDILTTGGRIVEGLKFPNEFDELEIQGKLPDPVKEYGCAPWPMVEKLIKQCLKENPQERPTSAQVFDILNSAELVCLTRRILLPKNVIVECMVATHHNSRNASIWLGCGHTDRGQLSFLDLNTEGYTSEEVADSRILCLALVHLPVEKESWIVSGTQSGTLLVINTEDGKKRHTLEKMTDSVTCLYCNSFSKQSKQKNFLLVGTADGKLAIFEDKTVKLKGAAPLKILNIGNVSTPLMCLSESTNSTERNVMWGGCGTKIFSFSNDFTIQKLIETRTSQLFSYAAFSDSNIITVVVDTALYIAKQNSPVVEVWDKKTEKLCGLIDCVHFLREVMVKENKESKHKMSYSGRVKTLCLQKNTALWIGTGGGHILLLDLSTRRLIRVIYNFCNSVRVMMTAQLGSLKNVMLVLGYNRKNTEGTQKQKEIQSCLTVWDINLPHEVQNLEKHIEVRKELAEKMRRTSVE

SMILES: CN1Cc2nccc(-c3cn(C)nc3-c3ccc(F)cc3)c2C1=O
- % of inhibition [1]: 7%

SMILES: CC[C@@H]1[C@H](F)C(=O)N[C@@H]1COc1nccc2cc(C(N)=O)c(OC)cc12 [ZIMLOVISERTIB]
- % of inhibition [2]: 52%

SMILES: O[C@H]1CC[C@H](Nc2ncc3nc(Nc4c(F)cc(F)cc4F)n([C@H]4CCOC4)c3n2)CC1
- % of control [3]: 100%

SMILES: N#Cc1cccc(-c2c[nH]c3ncnc(N4CCOCC4)c23)c1
- % of control [4]: 100%
- % of control [5]: 80%
- % of control [6]: 75%
